Measurements published in US9895438B2, “Treatment of cancer with naltrexone” (Cancer Vaccine Institute, priority 2013, dated 2018).
Entries after “also recorded” stand apart in the source; their conditions may differ. Where two headings read alike, the source gives them in different places.

Key:
metastatic melanoma = test: Patient with chemotherapy-resistant metastatic melanoma treated with LDN
[1] = system: TLR2, TLR3, TLR4, TLR5, TLR7, TLR8, TLR9, NOD1, NOD2; test: Agonist assays on panel of TLR and NOD transfectants; format: cell-based; details: TLR2, 3, 4, 5, 7, 8, 9, NOD1, NOD2
Protocol: (§1) Samples and controls were tested in duplicate on recombinant HEK-293 cell lines expressing the various TLR and NOD receptors with an alkaline phosphatase reporter gene. Cells were incubated with or without 1 μM naltrexone in an antagonist assay using the Invivogen panel of TLR and NOD signalling transfectants. Results shown are for TLR4 and TLR9, TLR activation results are given as optical density (O.D.) values, which have been confirmed in three independent experiments.
(§2) Low dose naltrexone (LDN) was tested in agonist and antagonist assays on a panel of TLR and NOD transfectants (TLR2, TLR3, TLR4, TLR5, TLR7, TLR8, TLR9, NOD1, NOD2). Screening assays were performed by Cayla-Invivogen (Toulouse, France).

TLR4 [2] = target: T1, TLR4 (Homo sapiens, UniProt O00206+Q9Y6Y9); test: TLR4 antagonist assay, HEK-293 transfectants with alkaline phosphatase reporter gene (Invivogen panel); format: cell-based; details: 1 μM naltrexone, O.D. readout (FIG. 1)
T1 construct: host or cells: HEK-293
T1 sequence (O00206 24-839, species assumed): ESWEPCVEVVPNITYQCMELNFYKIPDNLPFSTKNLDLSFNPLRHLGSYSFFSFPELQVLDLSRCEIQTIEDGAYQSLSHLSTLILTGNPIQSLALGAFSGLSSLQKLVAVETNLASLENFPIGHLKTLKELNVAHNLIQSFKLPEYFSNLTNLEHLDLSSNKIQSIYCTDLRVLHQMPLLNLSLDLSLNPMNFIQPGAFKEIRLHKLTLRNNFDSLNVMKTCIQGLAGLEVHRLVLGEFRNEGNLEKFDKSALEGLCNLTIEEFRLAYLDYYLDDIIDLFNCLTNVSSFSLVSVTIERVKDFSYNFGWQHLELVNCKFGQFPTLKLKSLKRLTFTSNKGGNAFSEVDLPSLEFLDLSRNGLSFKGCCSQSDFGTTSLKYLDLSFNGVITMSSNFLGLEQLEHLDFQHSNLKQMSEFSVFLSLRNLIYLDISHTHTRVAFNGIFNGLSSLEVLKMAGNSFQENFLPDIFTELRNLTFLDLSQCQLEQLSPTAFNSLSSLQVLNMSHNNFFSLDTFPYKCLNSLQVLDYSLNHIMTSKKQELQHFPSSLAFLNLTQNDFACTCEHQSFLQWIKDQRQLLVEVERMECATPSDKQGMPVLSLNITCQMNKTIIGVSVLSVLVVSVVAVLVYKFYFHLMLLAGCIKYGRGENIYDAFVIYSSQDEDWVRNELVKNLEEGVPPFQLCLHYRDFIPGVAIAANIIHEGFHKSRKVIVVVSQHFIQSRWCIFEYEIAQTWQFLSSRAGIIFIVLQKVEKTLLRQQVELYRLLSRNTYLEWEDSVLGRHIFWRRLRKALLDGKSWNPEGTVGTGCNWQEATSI
T1 sequence (Q9Y6Y9 17-160 limits assumed, species assumed): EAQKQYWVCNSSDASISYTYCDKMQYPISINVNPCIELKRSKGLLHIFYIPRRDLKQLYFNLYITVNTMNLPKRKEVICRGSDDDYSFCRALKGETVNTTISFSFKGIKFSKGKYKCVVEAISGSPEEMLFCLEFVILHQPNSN
Protocol: as §1, §2

[3] = system: hormone-refractory prostate cancer; test: Patient with hormone-refractory prostate cancer treated with Mycobacterium vaccae plus LDN; format: in vivo, human; details: one patient, LDN added to Mycobacterium vaccae treatment
TLR9 = target: T2, TLR9 (Homo sapiens, UniProt Q9NR96); test: TLR9 antagonist assay, HEK-293 transfectants with alkaline phosphatase reporter gene (Invivogen panel); format: cell-based
T2 construct: host or cells: HEK-293
T2 sequence (Q9NR96 26-1032): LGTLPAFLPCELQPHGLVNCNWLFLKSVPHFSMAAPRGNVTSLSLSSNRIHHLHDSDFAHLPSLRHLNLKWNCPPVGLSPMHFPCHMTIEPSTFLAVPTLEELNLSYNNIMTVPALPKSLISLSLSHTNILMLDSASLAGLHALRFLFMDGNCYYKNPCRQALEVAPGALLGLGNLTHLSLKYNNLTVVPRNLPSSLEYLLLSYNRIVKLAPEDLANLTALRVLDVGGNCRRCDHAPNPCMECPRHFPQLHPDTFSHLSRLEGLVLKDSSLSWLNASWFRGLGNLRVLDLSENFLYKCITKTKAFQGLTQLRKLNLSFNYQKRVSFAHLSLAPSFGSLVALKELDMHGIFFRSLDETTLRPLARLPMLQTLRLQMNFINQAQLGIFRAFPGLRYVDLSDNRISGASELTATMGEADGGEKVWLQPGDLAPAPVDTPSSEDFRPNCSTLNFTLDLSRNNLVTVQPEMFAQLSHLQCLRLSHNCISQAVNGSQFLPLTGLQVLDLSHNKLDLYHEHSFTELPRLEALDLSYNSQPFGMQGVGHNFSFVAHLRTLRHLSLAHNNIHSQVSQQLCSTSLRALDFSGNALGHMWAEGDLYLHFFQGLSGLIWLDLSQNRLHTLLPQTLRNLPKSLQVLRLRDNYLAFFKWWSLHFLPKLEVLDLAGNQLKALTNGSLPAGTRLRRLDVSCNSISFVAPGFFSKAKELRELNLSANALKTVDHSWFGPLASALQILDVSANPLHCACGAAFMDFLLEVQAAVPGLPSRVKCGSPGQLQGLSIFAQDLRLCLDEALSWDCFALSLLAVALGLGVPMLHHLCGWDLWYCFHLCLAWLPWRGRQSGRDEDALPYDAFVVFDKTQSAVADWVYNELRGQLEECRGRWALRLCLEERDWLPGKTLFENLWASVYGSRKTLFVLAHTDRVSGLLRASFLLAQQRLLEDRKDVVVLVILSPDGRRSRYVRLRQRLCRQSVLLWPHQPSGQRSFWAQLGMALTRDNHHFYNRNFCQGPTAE
Protocol: as §1, §2

TLR4 [4] = target: T1, TLR4; details: Hutchinson et al. (2008); cited from earlier work

O=C1CC[C@@]2(O)[C@H]3Cc4ccc(O)c5c4[C@@]2(CCN3CC2CC2)[C@H]1O5 [LDN, morphinan-6-one,17-(cyclopropylmethyl)-4,5-epoxy-3,14-dihydroxy-(5α)]
time to development of vitiligo (metastatic melanoma; after administration of low dose naltrexone): ≤ 48 h
development of vitiligo (sign of activated cytotoxic T cells against melanoma antigens) (metastatic melanoma; one patient previously given vaccine and radiotherapy, LDN as supportive treatment prior to more radiotherapy): marked vitiligo
stimulation of signalling (agonism) through TLR and NOD receptors [1]: did not stimulate signalling through any of the receptors tested
antagonism of TLR4 (TLR4 [2]): mild antagonistic effect; also recorded: mild antagonist effect
prostate-specific antigen levels [3]: drop in prostate-specific antigen levels
antagonism of TLR9 (recognition of CpG DNA) (TLR9; antagonist assay, 1 μM naltrexone, O.D. readout (FIG. 1)): striking antagonistic effect; also recorded: inhibited recognition of CpG DNA
IC50 (TLR9; titration, TLR9-transfected cell line, naltrexone diluted in PBS or H2O (FIG. 2), read-out: IC50 for inhibition of TLR9): ~50 µM
antagonism of TLR4 (TLR4 [4]): weakly antagonise TLR4
